Test results as given in patent publication US11660326B2, “Bacterial-binding peptides for treatment of infectious diseases and related inflammatory processes” (priority 2018, dated 2023).
Where two headings read alike, the source gives them in different places.

What was measured:
[1] = Intrinsic tryptophan fluorescence binding, apparent Kd for LTA; set-up: species or system S. aureus; settings: for Kd: PBS, peptide 10 μg/mL, Hill fit
Description: (§1) FIG. 4. Kd analysis of the LPS and LTA interaction with CD6-derived peptides and protein. The apparent Kd values for the binding of peptides and proteins in study to LPS and LTA determined by fluorescence emission of tryptophan residues are shown. Peptides/proteins (10 μg/mL) were titrated with or without increasing concentrations of Re-LPS or LTA in PBS. Peptide samples (with and without either Re-LPS or LTA) and blank samples (Re-LPS or LTA alone) were excited at 295 nm, and the emission spectra recorded from 300 to 400 nm. Results are expressed as the change in peptide fluorescence (AF) at the wavelength of the emission maxima (353 nm for the peptides and 337 nm for rshCD6 protein) in the presence and absence of either Re-LPS or LTA. Results are means±SD of 3 experiments. Peptide fluorescence changes at 353 nm were fitted to the Hill equation.
(§2) Intrinsicfluorescence experiments. To explore the ability of different peptides/proteins to bind LTA (Mr=14,000, from S. aureus) and rough LPS (Re-LPS, Mr=2500, from Salmonella minnesota serotype Re 595), binding studies were carried out in an AB2 spectrofluorimeter with a thermostated cuvette holder (±0.1° C.), using 5×5 mm path-length quartz cuvettes as described (Coya J M, et al., 2015, Natural Anti-Infective Pulmonary Proteins: In Vivo Cooperative Action of Surfactant Protein SP-A and the Lung Antimicrobial Peptide SP-BN, J Immunol 195:1628-36). Re-LPS concentration was assessed by quantification of 2-keto-3-deoxyoctulosonic acid (Garcia-Verdugo I, et al., 2003, Effect of hydroxylation and N187-linked glycosylation on molecular and functional properties of recombinant human surfactant protein A, Biochemistry 42:9532-42). Peptide/protein samples (10 μg/mL) were titrated with different amounts of a stock solution of either LTA or Re-LPS in phosphate buffered saline (PBS) pH 7.2, and the Trp fluorescence emission spectra recorded with excitation at 295 nm. The fluorescence intensity readings were corrected for the dilution caused by […]. Background intensities in peptide/protein-free samples due to LTA or Re-PS were subtracted from each recording. The apparent dissociation constant (Kd) of peptide/protein-ligand complexes were obtained by nonlinear least-squares fitting to the Hill equation of the change in peptide fluorescence at 353 nm with the amount of added LTA or Re-LPS (Garcia-Verdugo I, et al., 2003, Effect of hydroxylation and N187-linked glycosylation on molecular and functional properties of recombinant human surfactant protein A, Biochemistry 42:9532-42): ΔF/ΔFmax=[L]^n/([L]^n+Kd), where ΔF is the change in fluorescence intensity at 353 nm relative to the intensity of free peptide; ΔFmax is the change in fluorescence intensity at saturating LTA or Re-LPS concentrations; [L] is the molar concentration of free ligand; and n is the Hill coefficient.

[2] = Intrinsic tryptophan fluorescence binding, apparent Kd for Re-LPS; set-up: species or system Salmonella minnesota serotype Re 595; settings: for Kd: PBS, peptide 10 μg/mL, Hill fit
Description: as §1, §2

[3] = Endotoxin adsorption on peptide/protein-coated Eupergit beads (LAL assay); settings: 50 UI/mL LPS, 0-150 min, vs HSA- and rshCD5-coated controls
Description: FIG. 11. Endotoxin adsorption assays on immobilized CD6-derived peptides and proteins. Eupergit® beads coated with different CD6-derived peptides (PD2, PD3, and Pcons) (A) or proteins (rshCD5 and rshCD6) (B) were incubated for different periods of time (0, 30, 90 and 150 min) with a 50 UI/mL endotoxin solution. Limulus amoebocyte lysate activating activity (LAL activity) of supernatants was then monitored along time and the OD 405-620 nm represented. Beads coated with Human Serum Albumin (HSA) were used as negative controls. Shown are triplicates of a representative experiment from two independent performed. Statistical analysis was done by using the 2-tailed paired T test with 95% confidence interval (***, P<0.001).
Proteins or peptides (2.5 mg each) were immobilized via NH2 groups on macroporous acrylic EUPERGIT© beads (0.2 g; Röhm-Pharma GmbH, Germany) following a previously described protocol (Zimmermann M, et al., 1999, Endotoxin adsorbent based on immobilized human serum albumin. Clin Chem Lab Med 37:373-379). Peptide or protein-coated Eupergit® beads are obtained by incubation with stirring of the polymeric beads at room temperature with a solution of the peptides of the invention in sodium phosphate buffer 100 mM pH 8 for 24 hours. After incubation, the beads were washed 3 times with 3 M sodium chloride pH 7.0, 30 mM sodium phosphate buffer pH 4.0 and 30 mM sodium phosphate buffer pH 8.0. Finally, 154 mM sodium chloride solution pH 7.0 was added to the peptide or protein-coated beads.
LPS detection was performed by using the turbidimetric-kinetic Limulus Amebocyte Lysate (LAL) kit-QCL (50-650U, Lonza) following manufacturer's instructions. Protein/peptide-coated EUPERGIT® beads were incubated 1:1 (v:v) with the provided endotoxin solution (50 UI/mL) for different periods of time (0-150 min) at room temperature following manufacturer's instructions.

[4] = system: mice undergoing CLP-induced septic shock; test: Plasma cytokine levels following CLP-induced sepsis; format: in vivo, C57BL/6J mice; settings: 20 h post CLP; 6 mg/kg i.v. at +1 h; vs saline-treated group
Description: FIG. 9. Therapeutic effect of CD6.PD3 infusion on cytokine and bacterial load levels following CLP-induced sepsis. (A) C57BL/6J mice were i.v. infused at +1 h post CLP with saline (n=7) or CD6.PD3 peptide (6 mg/kg; n=9), and cytokine plasma levels were monitored by ELISA at different time points (4 h and 20 h) thereafter. Data are expressed as mean±SD. (B) Same mouse groups as in (A) were monitored for blood and spleen bacterial load at 20 h following CLP induction. Data are expressed as mean±SD of CFU/mg (spleen) or CFU/μL (blood). In all cases, statistical differences were evaluated using a 2-tailed Student t-test (*, P<0.05).
Animal procedures were approved by the Animal Experimentation Ethical Committee, University of Barcelona. High-grade mortality (≥90% mortality within the first 48-72 h) CLP-induced septic shock was induced in 8-10 week old C57BL/6J male mice (20-25 g; Charles River) as previously reported (Martinez-Florensa M, et al., 2017, Protective Effects of Human and Mouse Soluble Scavenger-Like CD6 Lymphocyte Receptor in a Lethal Model of Polymicrobial Sepsis, Antimicrob Agents Chemother 61:e01391-16).

For GTVEVRLEASW [CD6.PD1], the “affinity / Kd for LTA, in words” value [1] was “lower than the prototypical DMBT1.pbs1 and CD6.cons peptides or the rshCD6 protein itself”, the Kd [1] was 0.39 ± 0.06 nM and the “affinity / Kd for LTA, in words” value ([1]; listed as PD1) was “very high affinity”. For the same sequence, the “affinity / Kd for LPS, in words” value [2] was “lower than the prototypical DMBT1.pbs1 and CD6.cons peptides or the rshCD6 protein itself”, the Kd [2] was 3.5 ± 0.3 nM and the “affinity / Kd for LPS, in words” value ([2]; listed as PD1) was “very high affinity”.
For GRVEMLEHGEW [CD6.PD2], the “affinity / Kd for LTA, in words” value [1] was “lower than the prototypical DMBT1.pbs1 and CD6.cons peptides or the rshCD6 protein itself”, the Kd [1] was 0.31 ± 0.04 nM and the “affinity / Kd for LTA, in words” value ([1]; listed as PD2) was “very high affinity”. For the same sequence, the “affinity / Kd for LPS, in words” value [2] was “lower than the prototypical DMBT1.pbs1 and CD6.cons peptides or the rshCD6 protein itself”, the Kd [2] was 35 ± 2 nM and the “affinity / Kd for LPS, in words” value ([2]; listed as PD2) was “very high affinity”. For the same sequence, the “endotoxin levels (LAL assay)” value [3] was “reduced endotoxin levels”.
In the case of GQVEVHFRGVW (CD6.PD3), the “endotoxin levels (LAL assay)” value [3] is reported as “reduced endotoxin levels”, the IL-1β level [4] is reported as “significant lower levels” and the IL-6 level [4] is reported as “significant lower levels”. For the same sequence, the TNF-α level [4] was “significant lower levels”.
